Columns and labels:
[1] = tested on: Monographella nivalis (Microdochium nivale); test: Monographella nivalis (Microdochium nivale)/liquid culture (foot rot cereals); format: cell-based; settings: liquid culture, growth inhibition determined photometrically 4-5 days after application, compared to untreated control
Protocol: The fungicidal activity of the compounds of the invention have been tested as follows: • Monographella nivalis (Microdochium nivale)/liquid culture (foot rot cereals) Conidia of the fungus from cryogenic storage are directly mixed into nutrient broth (PDB potato dextrose broth). After placing a (DMSO) solution of test compound into a microtiter plate (96-well format), the nutrient broth containing the fungal spores is added. The test plates are incubated at 24° C. and the inhibition of growth is determined photometrically 4-5 days after application.

Pythium ultimum = test: Pythium ultimum/liquid culture (seedling damping off); format: cell-based; settings: Globisporangium ultimum, liquid culture, growth inhibition determined photometrically 2-3 days after application, compared to untreated control
Protocol: Mycelia fragments and oospores of a newly grown liquid culture of the fungus are directly mixed into nutrient broth (PDB potato dextrose broth). After placing a (DMSO) solution of test compound into a microtiter plate (96-well format), the nutrient broth containing the fungal mycelia/spore mixture is added. The test plates are incubated at 24° C. and the inhibition of growth is determined photometrically 2-3 days after application.

Plasmopara viticola = test: whole plant or invertebrate; format: in vivo; settings: foliar, read-out: control of Plasmopara viticola
Phytophthora infestans = test: whole plant or invertebrate; format: in vivo; settings: in Solanum lycopersicum, foliar, read-out: control of Phytophthora infestans

| SMILES | inhibition of growth at 20 ppm [1] | inhibition of growth at 20 ppm (Pythium ultimum) | pest or weed control at 200 ppm (Plasmopara viticola) | pest or weed control at 200 ppm (Phytophthora infestans) |
| --- | --- | --- | --- | --- |
| CC(=O)Nc1ccc(-c2cnc3cnc(C(=O)N(C)c4ccc(Br)cc4)cn23)cc1 [Compound 34, 3-(4-acetamidophenyl)-N-(4-bromophenyl)-N-methyl-imidazo[1,2-a]pyrazine-6-carboxamide] | ≥ 80% | ≥ 80% | – | – |
| COCC(=O)Nc1ccc(-c2cnc3cnc(C(=O)N(C)c4ccc(Cl)cc4)cn23)cc1 [Compound 27, N-(4-chlorophenyl)-3-[4-[(2-methoxyacetyl)amino]phenyl]-N-methyl-imidazo[1,2-a]pyrazine-6-carboxamide] | – | ≥ 80% | – | – |
| COCN(C(=O)c1cn2c(-c3ccc(NC(=O)OC)nc3)cnc2cn1)c1ccc(C#N)c(OC)c1 [Compound 55, methyl N-[5-[6-[(4-cyano-3-methoxy-phenyl)-(methoxymethyl)carbamoyl]imidazo[1,2-a]pyrazin-3-yl]-2-pyridyl]carbamate] | – | ≥ 80% | ≥ 80% | – |
| COC(=O)Nc1ccc(-c2cnc3cnc(C(=O)N(C)c4ccc(Cl)cc4)cn23)cc1 [Compound 28, methyl N-[4-[6-[(4-chlorophenyl)-methyl-carbamoyl]imidazo[1,2-a]pyrazin-3-yl]phenyl]carbamate] | ≥ 80% | ≥ 80% | ≥ 80% | – |
| COCN(C(=O)c1cn2c(-c3ccc(NC(=O)OC)nc3)cnc2cn1)c1ccc(F)c(OC)c1 [Compound 1, methyl N-[5-[6-[(4-fluoro-3-methoxy-phenyl)-(methoxymethyl)carbamoyl]imidazo[1,2-a]pyrazin-3-yl]-2-pyridyl]carbamate] | – | ≥ 80% | ≥ 80% | ≥ 80% |
| CCOC(=O)Nc1ccc(-c2cnc3cnc(C(=O)N(C)c4ccc(Cl)cc4)cn23)cc1 [Compound 8, ethyl N-[4-[6-[(4-chlorophenyl)-methyl-carbamoyl]imidazo[1,2-a]pyrazin-3-yl]phenyl]carbamate] | ≥ 80% | – | ≥ 80% | – |
| COC(=O)Nc1ccc(-c2cnc3cnc(C(=O)N(C)c4ccc(C#N)c(OC)c4)cn23)cc1 [Compound 59, methyl N-[4-[6-[(4-cyano-3-methoxy-phenyl)-methyl-carbamoyl]imidazo[1,2-a]pyrazin-3-yl]phenyl]carbamate] | – | ≥ 80% | ≥ 80% | ≥ 80% |
| COC(=O)Nc1ccc(-c2cnc3cnc(C(=O)N(CC#N)c4ccc(F)c(OC)c4)cn23)cn1 [Compound 2, methyl N-[5-[6-[cyanomethyl-(4-fluoro-3-methoxy-phenyl)carbamoyl]imidazo[1,2-a]pyrazin-3-yl]-2-pyridyl]carbamate] | – | ≥ 80% | – | ≥ 80% |
| COC(=O)Nc1ccc(-c2cnc3cnc(C(=O)N4CCN(C)c5cc(F)ccc54)cn23)cn1 [Compound 53, methyl N-[5-[6-(6-fluoro-4-methyl-2,3-dihydroquinoxaline-1-carbonyl)imidazo[1,2-a]pyrazin-3-yl]-2-pyridyl]carbamate] | – | ≥ 80% | – | – |
| COC(=O)Nc1ccc(-c2cnc3cnc(C(=O)N4CCCc5cc(F)ccc54)cn23)cn1 [Compound 42, methyl N-[5-[6-(6-fluoro-3,4-dihydro-2H-quinoline-1-carbonyl)imidazo[1,2-a]pyrazin-3-yl]-2-pyridyl]carbamate] | – | – | – | ≥ 80% |
| COC(=O)Nc1ccc(-c2cnc3cnc(C(=O)N(C)c4ccc(C#N)cc4)cn23)cc1 [Compound 9, methyl N-[4-[6-[(4-cyanophenyl)-methyl-carbamoyl]imidazo[1,2-a]pyrazin-3-yl]phenyl]carbamate] | – | ≥ 80% | – | – |
| CON(C)C(=O)Nc1ccc(-c2cnc3cnc(C(=O)N(C)c4ccc(Cl)cc4)cn23)cc1 [Compound 5, N-(4-chlorophenyl)-3-[4-[[methoxy(methyl)carbamoyl]amino]phenyl]-N-methyl-imidazo[1,2-a]pyrazine-6-carboxamide] | ≥ 80% | – | – | – |
| CC(=O)Nc1ccc(-c2cnc3cnc(C(=O)N(C)c4ccc(F)cc4)cn23)cc1 [Compound 38, 3-(4-acetamidophenyl)-N-(4-fluorophenyl)-N-methyl-imidazo[1,2-a]pyrazine-6-carboxamide] | – | ≥ 80% | – | – |
| COc1cc(N(C)C(=O)c2cn3c(-c4ccc(NC(C)=O)cc4)cnc3cn2)ccc1F [Compound 51, 3-(4-acetamidophenyl)-N-(4-fluoro-3-methoxy-phenyl)-N-methyl-imidazo[1,2-a]pyrazine-6-carboxamide] | – | – | – | ≥ 80% |
| COc1cc(N(C)C(=O)c2cn3c(-c4ccc(NC(=O)C5CC5)cc4)cnc3cn2)ccc1F [Compound 46, 3-[4-(cyclopropanecarbonylamino)phenyl]-N-(4-fluoro-3-methoxy-phenyl)-N-methyl-imidazo[1,2-a]pyrazine-6-carboxamide] | – | – | – | ≥ 80% |
| CNC(=O)Nc1ccc(-c2cnc3cnc(C(=O)N(C)c4ccc(Cl)cc4)cn23)cc1 [Compound 6, N-(4-chlorophenyl)-N-methyl-3-[4-(methylcarbamoylamino)phenyl]imidazo[1,2-a]pyrazine-6-carboxamide] | ≥ 80% | – | ≥ 80% | – |
| COc1cc(N(C)C(=O)c2cn3c(-c4ccc(NC(=O)C5CC5)nc4)cnc3cn2)ccc1F [Compound 50, 3-[6-(cyclopropanecarbonylamino)-3-pyridyl]-N-(4-fluoro-3-methoxy-phenyl)-N-methyl-imidazo[1,2-a]pyrazine-6-carboxamide] | – | – | – | ≥ 80% |
| COC(=O)Nc1ccc(-c2cnc3cnc(C(=O)N(CC#N)c4ccc(Cl)c(OC)c4)cn23)cn1 [Compound 3, methyl N-[5-[6-[(4-chloro-3-methoxy-phenyl)-(cyanomethyl)carbamoyl]imidazo[1,2-a]pyrazin-3-yl]-2-pyridyl]carbamate] | – | ≥ 80% | – | ≥ 80% |
| CC(=O)Nc1ccc(-c2cnc3cnc(C(=O)N(C)c4ccc(C#N)cc4)cn23)cc1 [Compound 36, 3-(4-acetamidophenyl)-N-(4-cyanophenyl)-N-methyl-imidazo[1,2-a]pyrazine-6-carboxamide] | – | – | ≥ 80% | – |
| COC(=O)Nc1ccc(-c2cnc3cnc(C(=O)N(C)c4ccc(F)c(OC)c4)cn23)cn1 [Compound 4, methyl N-[5-[6-[(4-fluoro-3-methoxy-phenyl)-methyl-carbamoyl]imidazo[1,2-a]pyrazin-3-yl]-2-pyridyl]carbamate] | – | ≥ 80% | – | ≥ 80% |
| CC(=O)Nc1ccc(-c2cnc3cnc(C(=O)N(C)c4ccc(Cl)cc4)cn23)cc1 [Compound 37, 3-(4-acetamidophenyl)-N-(4-chlorophenyl)-N-methyl-imidazo[1,2-a]pyrazine-6-carboxamide] | – | – | ≥ 80% | ≥ 80% |
| COC(=O)Nc1ccc(-c2cnc3cnc(C(=O)N(C)c4ccc(F)c(OC)c4)cn23)cc1 [Compound 58, methyl N-[4-[6-[(4-fluoro-3-methoxy-phenyl)-methyl-carbamoyl]imidazo[1,2-a]pyrazin-3-yl]phenyl]carbamate] | – | ≥ 80% | ≥ 80% | ≥ 80% |

Reference: US20260283153A1 (priority 2023, published 2026)
